Test results published in patent US20250195490A1, “ALPHA-METHYLENE AND AMINOMETHYL LACTONES AND LACTAMS FOR TREATMENT OF CLOSTRIDIOIDES DIFFICILE INFECTION (CDI)” (Purdue Research Foundation, priority 2022, published 2025).
Converted amounts (≈) assume the structure as drawn.

Assays:
[1] = test system: Ba. fragilis; assay: MIC against human normal gut microbiota: Bacteroides fragilis; assay type: cell-based
From the text: (§1) The activity of the selected lactones against the human gut microbiota was also examined. Microbiota interfere with C. difficile's ability to colonize the gastrointestinal tract and subsequently cause infection. Many antibiotics inhibit/kill the endogenous microflora, which permits enhanced colonization by C. difficile and infection. Three different bacterial species that are present in the gut microflora were used in this experiment; Bifidobacterium (anaerobic Gram-positive bacteria), Bacteroides (anaerobic Gram-negative bacteria) and Lactobacillus (microaerophilic Gram-positive bacteria). Ideal compounds/drugs are those with selective antibacterial activity against C. difficile so as to protect the indigenous microflora present in the GI tract from being damaged/killed (which will exacerbate infections caused by C. difficile).
(§2) Bifidobacterium and Bacteroides were first grown for 48 hours at 37° C., anaerobically, using brain heart infusion supplemented (BHIS) agar (brain heart infusion agar supplemented with hemin, vitamin K and L-cysteine). Lactobacillus was cultivated on MRS agar and incubated in the presence of 5% CO2 for 48 hours at 37° C. Each bacterium was suspended in phosphate-buffered saline (PBS) to achieve 0.5 McFarland standard and subsequently diluted in brain heart infusion supplemented broth (for Bifidobacterium and Bacteroides) or in MRS broth (for Lactobacillus) to achieve a bacterial inoculum of approximately 5×10^5 CFU/mL. Bacteria were then seeded in 96-well plates containing serial dilutions of the compounds and incubated for 48 hours. MICs reported in Table 4 are the minimum concentration of compound/control drug that inhibited the visual growth of bacteria.

[2] = test system: L. crispatus; assay: MIC against human normal gut microbiota: L. crispatus; assay type: cell-based, Lactobacillus crispatus
From the text: as §1, §2

[3] = test system: Bi. breve; assay: MIC against human normal gut microbiota: Bifidobacterium breve; assay type: cell-based; conditions: Bi. breve HM 856
From the text: as §1, §2

[4] = test system: L. reuteri; assay: MIC against human normal gut microbiota: L. reuteri; assay type: cell-based, Lactobacillus reuteri; conditions: L. reuteri HM 120
From the text: as §1, §2

[5] = test system: L. casei; assay: MIC against human normal gut microbiota: L. casei; assay type: cell-based, Lactobacillus casei; conditions: L. casei HM 334
From the text: as §1, §2

[6] = test system: Ba. dorsei; assay: MIC against human normal gut microbiota: Bacteroides dorsei; assay type: cell-based
From the text: as §1, §2

[7] = test system: hypervirulent Clostridioides difficile strains; assay: MIC against hypervirulent Clostridioides difficile strains; assay type: cell-based
Method: (§3) The antibacterial activity of compounds 48, 50, 51, 61 and 85 against a panel of Clostridioides difficile strains was evaluated. A bacterial solution equivalent to 0.5 McFarland standard was prepared and diluted in brain heart infusion broth supplemented with hemin and vitamin K. Compounds and control drugs were added in the first row of 96-well plates and serially diluted with media containing bacteria (to achieve a concentration gradient ranging from 128 to 1 μg/mL). Plates were then incubated anaerobically at […] for 48 hours.

[8] = test system: L. gasseri; assay: MIC against human normal gut microbiota: L. gasseri; assay type: cell-based, Lactobacillus gasseri; conditions: L. gasseri HM 407
From the text: as §1, §2

[9] = test system: C. albicans; assay: Broth microdilution against Candida albicans; assay type: cell-based; conditions: gradient 128 to 1 μg/mL, 24 hours
Method: (§4) Method: The minimum inhibitory concentration (MIC) of the compounds and control drugs, linezolid (antibiotic), vancomycin (antibiotic), 5-fluorocytosine (5-FC, antifungal drug), and fluconazole (antifungal drug) was determined using the broth microdilution method according to the guidelines outlined by the Clinical and Laboratory Standards Institute (CLSI) against clinically relevant bacterial (methicillin-resistant Staphylococcus aureus (MRSA), vancomycin-resistant Enterococcus faecalis (VRE), vancomycin-resistant Enterococcus faecium (VRE), Clostridioides difficile and Escherichia coli) and fungal (Candida albicans) strains. A solution equivalent to 0.5 McFarland standard was prepared from each strain and diluted in cation-adjusted Mueller-Hinton broth (for S. aureus and E. coli), tryptone soy broth (for E. faecalis), or brain heart infusion broth (for E. faecium) to achieve a bacterial inoculum of about 5×10^5 CFU/mL. C. difficile strains were cultured in brain heart infusion broth supplemented with hemin and vitamin K. C. albicans was diluted in RPMI medium supplemented with 3-(N-morpholino) propanesulfonic acid to achieve a fungal concentration of about 1.5×10^3 CFU/mL. Compounds and control drugs were added in the first row of the 96-well plates and diluted with media containing bacteria (to achieve a concentration gradient ranging from 128 to 1 μg/mL). For MRSA, VRE, and E. coli strains, plates were then incubated aerobically at 37° C. for at least 18 hours. C. albicans was incubated aerobically at 37° C. for 24 hours. Plates containing C. difficile were incubated anaerobically at […] for 48 hours.

[10] = test system: MRSA (USA300); assay: microbe, parasite or virus in culture; assay type: cell-based, Staphylococcus aureus; conditions: aerobic, 37° C., at least 18 hours
Method: as §4

[11] = test system: E. faecium; assay: Broth microdilution against vancomycin-resistant E. faecium; assay type: cell-based, Enterococcus faecium; conditions: gradient 128 to 1 μg/mL
Method: as §4

[12] = test system: clinically important Clostridioides difficile strains; assay: MIC against clinically important Clostridioides difficile strains; assay type: cell-based
Method: as §3

[13] = test system: Bi. longum; assay: MIC against human normal gut microbiota: Bifidobacterium longum; assay type: cell-based; conditions: Bi. longum HM 848
From the text: as §1, §2

[14] = test system: Clostridioides difficile; assay: MIC by broth microdilution against Clostridioides difficile (Table 1); assay type: cell-based; conditions: anaerobic, 48 hours; strain BAA-1870
Method: as §4

[15] = test system: E. faecalis (VRE); assay: microbe, parasite or virus in culture; assay type: cell-based, Enterococcus faecalis; conditions: aerobic, 37° C., at least 18 hours
Method: as §4

[16] = test system: E. coli (TolC mutant); assay: MIC by broth microdilution against E. coli (TolC mutant); assay type: cell-based, Escherichia coli; conditions: aerobic, 37° C., at least 18 hours
Method: as §4

COc1cc(C2OC(=O)C(CN3CCCCC3)C2c2ccccc2Br)ccc1OCc1ccccc1 (racemic) [Compound 27]
MIC ([1]; Ba. fragilis HM 709): >128 µg/mL | MIC ([1]; Ba. fragilis HM 710): >128 µg/mL | MIC ([1]; Ba. fragilis HM 711): >128 µg/mL | MIC ([1]; Ba. fragilis HM 714): >128 µg/mL | MIC ([2]; L. crispatus HM 375): >128 µg/mL | MIC ([2]; L. crispatus HM 421): >128 µg/mL | MIC [3]: >128 µg/mL | MIC [4]: >128 µg/mL | MIC [5]: >128 µg/mL | MIC ([6]; Ba. dorsei HM 29): >128 µg/mL | MIC ([6]; Ba. dorsei HM 717): >128 µg/mL | MIC ([7]; CD strain 81): 2 µg/mL (≈ 3.63 µM) | MIC ([7]; CD strain 82): 2 µg/mL (≈ 3.63 µM) | MIC ([7]; CD strain 83): 2 µg/mL (≈ 3.63 µM) | MIC ([7]; CD strain 84): 4 µg/mL (≈ 7.27 µM) | MIC ([7]; CD strain 85): 2 µg/mL (≈ 3.63 µM) | MIC ([7]; CD strain 86): 2 µg/mL (≈ 3.63 µM) | MIC ([7]; CD strain 87): 2 µg/mL (≈ 3.63 µM) | MIC ([7]; CD strain 90): 1 µg/mL (≈ 1.82 µM) | MIC ([7]; CD strain 49279): 2 µg/mL (≈ 3.63 µM) | MIC ([7]; CD strain 49287): 1 µg/mL (≈ 1.82 µM) | MIC ([7]; CD strain 49291): 1 µg/mL (≈ 1.82 µM) | MIC [8]: >128 µg/mL | activity against C. albicans [9]: inactive | MIC MRSA (USA300) [10]: >128 µg/mL | inhibition of the tested strains of E. faecium [11]: did not inhibit | MIC ([12]; CD strain 16): 1 µg/mL (≈ 1.82 µM) | MIC ([12]; CD strain 18): 2 µg/mL (≈ 3.63 µM) | MIC ([12]; CD strain 19): 1 µg/mL (≈ 1.82 µM) | MIC ([12]; CD strain 1801): 1 µg/mL (≈ 1.82 µM) | MIC ([12]; CD strain 43255): 1 µg/mL (≈ 1.82 µM) | MIC ([12]; CD strain P6): 2 µg/mL (≈ 3.63 µM) | MIC ([12]; CD strain P7): 1 µg/mL (≈ 1.82 µM) | MIC ([12]; CD strain P13): 1 µg/mL (≈ 1.82 µM) | MIC ([12]; CD strain P19): 2 µg/mL (≈ 3.63 µM) | MIC [13]: >128 µg/mL | MIC Clostridioides difficile [14]: 1 µg/mL (≈ 1.82 µM) | MIC E. faecalis (VRE) [15]: >128 µg/mL | MIC E. coli (TolC mutant) [16]: >128 µg/mL
